Measured values reported in publication PMC10253577, “Conformationally Restricted Glycoconjugates Derived from Arylsulfonamides and Coumarins: New Families of Tumour-Associated Carbonic Anhydrase Inhibitors” (International Journal of Molecular Sciences, 2023).
Read-outs that look alike come from different tables or passages of the source. Blank lines part the entries; values can stand above or below the molecule they belong to.

Assays:
[1] = system: panel of six human solid tumour cell lines (A549, HBL-100, HeLa, SW1573, T-47D, WiDr); experiment: antiproliferative assay (NCI protocol), whole panel; assay type: cell-based
Source text: (§1) The compounds prepared herein were subjected to in vitro testing as potential antiproliferative agents against a panel of six human solid tumour cell lines, following minor modifications of the protocol from the US National Cancer Institute (NCI). They can be categorized into two groups: drug-sensitive cell lines (A549, HBL-100, HeLa, SW1573) and multidrug resistant cell lines (T-47D, WiDr). […] Ph-derived thiourea 21e and imidazolidine-2-thione 24f were not included in the study.
(§2) Minor modifications of the US National Cancer Institute (NCI) protocol were used.

[2] = biological target: T1, hCA IX (Homo sapiens, UniProt Q16790); experiment: stopped-flow CO2 hydration assay, hCA IX; details: for S.I. I/IX: Ki (CA I)/Ki (CA IX); for S.I. II/IX: Ki (CA II)/Ki (CA IX)
Protocol: (§3) The panel of CA-directed compounds prepared herein were assessed in vitro against a series of isoforms of human CA with relevant therapeutic interest.
(§4) The choice of such isoforms will provide information about selectivity against tumour-associated CA IX and XII compared to other relevant CAs.
(§5) The inhibitory properties of title compounds against CAs were determined using the stopped-flow CO2 hydrase assay, as previously reported [46].

[3] = biological target: hCA XII (Homo sapiens, UniProt O43570); experiment: stopped-flow CO2 hydration assay, hCA XII; details: for S.I. I/XII: Ki (CA I)/Ki (CA XII); for S.I. II/XII: Ki (CA II)/Ki (CA XII)
Chain of hCA XII (O43570 25-354): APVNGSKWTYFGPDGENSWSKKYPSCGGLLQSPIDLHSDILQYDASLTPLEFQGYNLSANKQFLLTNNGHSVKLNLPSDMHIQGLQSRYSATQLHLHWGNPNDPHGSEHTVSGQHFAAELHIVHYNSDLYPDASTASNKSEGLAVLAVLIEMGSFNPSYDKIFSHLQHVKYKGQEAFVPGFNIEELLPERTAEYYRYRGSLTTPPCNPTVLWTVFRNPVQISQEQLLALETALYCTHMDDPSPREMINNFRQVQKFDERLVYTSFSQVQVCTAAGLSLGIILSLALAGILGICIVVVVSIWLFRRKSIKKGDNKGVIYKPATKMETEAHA
Protocol: as §3, §4, §5

[4] = biological target: hCA IV (Homo sapiens, UniProt P22748); experiment: stopped-flow CO2 hydration assay, hCA IV; details: mean from three assays, errors ±5–10%
Chain of hCA IV (P22748 19-312): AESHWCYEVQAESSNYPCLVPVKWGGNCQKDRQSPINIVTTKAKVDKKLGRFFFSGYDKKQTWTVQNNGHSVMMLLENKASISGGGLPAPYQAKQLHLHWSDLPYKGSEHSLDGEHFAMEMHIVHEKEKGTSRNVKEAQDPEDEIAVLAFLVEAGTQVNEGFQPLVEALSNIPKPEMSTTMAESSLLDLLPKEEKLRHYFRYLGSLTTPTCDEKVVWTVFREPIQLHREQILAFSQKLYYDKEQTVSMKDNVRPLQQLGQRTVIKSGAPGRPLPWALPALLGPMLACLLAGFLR
Protocol: as §3, §4, §5

[5] = biological target: T1, hCA IX; design: made in house; details: previously reported thioureas; cited from earlier work
[6] = system: HBL-100 (Breast); experiment: antiproliferative assay (NCI protocol), HBL-100; assay type: cell-based; details: Homo sapiens, drug-sensitive cell line, mean ± SD
Source text: as §1, §2

[7] = system: T-47D (Breast); experiment: antiproliferative assay (NCI protocol), T-47D; assay type: cell-based; details: Homo sapiens, T47D; multidrug-resistant cell line, mean ± SD
Source text: as §1, §2

[8] = system: SW1573 (Lung, Non-Small); experiment: antiproliferative assay (NCI protocol), SW1573; assay type: cell-based; details: Homo sapiens, drug-sensitive cell line, mean ± SD
Source text: as §1, §2

[9] = system: A549 (Lung, Non-Small); experiment: antiproliferative assay (NCI protocol), A549; assay type: cell-based; details: Homo sapiens, drug-sensitive cell line, mean ± SD
Source text: as §1, §2

[10] = system: HeLa (Cervix); experiment: antiproliferative assay (NCI protocol), HeLa; assay type: cell-based; details: Homo sapiens, drug-sensitive cell line, mean ± SD
Source text: as §1, §2

[11] = system: WiDr (Colon); experiment: antiproliferative assay (NCI protocol), WiDr; assay type: cell-based; details: Homo sapiens, multidrug-resistant cell line, mean ± SD
Source text: as §1, §2

[12] = biological target: hCA II (Homo sapiens, UniProt P00918); experiment: stopped-flow CO2 hydration assay, hCA II
Protocol: as §3, §4, §5

[13] = biological target: hCA I (Homo sapiens, UniProt P00915); experiment: stopped-flow CO2 hydration assay, hCA I
Chain of hCA I (P00915 whole entry): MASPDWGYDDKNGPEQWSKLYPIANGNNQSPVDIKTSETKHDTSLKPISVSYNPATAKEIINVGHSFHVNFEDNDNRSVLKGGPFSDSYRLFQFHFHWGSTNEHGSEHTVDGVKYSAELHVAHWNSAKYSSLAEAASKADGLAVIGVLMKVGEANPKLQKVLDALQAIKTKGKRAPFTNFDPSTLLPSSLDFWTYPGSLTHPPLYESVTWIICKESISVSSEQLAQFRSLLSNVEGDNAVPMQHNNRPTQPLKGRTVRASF
Protocol: as §3, §4, §5

SMILES: O=c1cc(-c2ccccc2)c2ccc(OCCCCCCN3C(=S)N[C@@H]4[C@@H](O)[C@@H]([C@H](O)CO)O[C@@H]43)cc2o1 [Compound 24f, 1-{6′-[7″-(4″-Phenyl-2″-oxo-2″H-chromen-7″-yl)oxy]hexyl}-(1‴,2‴-dideoxy-α-D-glucofurano)[2,1-d]imidazolidine-2-thione]
- GI50 ([1]; maximum concentration tested 100 µM, read-out: GI50, all tested cell lines): > 100 µM

- S.I. I/IX [2]: 2067.9
- S.I. II/IX [2]: 3.3
- S.I. I/XII [3]: 568
- S.I. II/XII [3]: 0.9
SMILES: NS(=O)(=O)c1ccc(CCNC(=S)N[C@@H]2O[C@H](CO)[C@H](O)[C@H](O)[C@H]2O)cc1 [Compound 2c]

- Ki [4]: 1.05 µM
SMILES: NS(=O)(=O)c1ccc(CCN2C(=S)NC3C(O)C(C(O)CO)OC32)cc1 [Compound 8c, 1-[2′-(4″-Sulfonamidophenyl)]ethyl-(1‴,2‴-dideoxy-α-D-glucofurano)[2,1-d]imidazolidine-2-thione]

- S.I. I/IX [2]: 102.4
- S.I. II/IX [2]: 22.4
SMILES: NS(=O)(=O)c1cccc(NC(=S)N[C@H]2C(O)O[C@H](CO)[C@H](O)[C@@H]2O)c1 (stereo partly shown) [Compound 4b]
- Ki [5]: 0.042 µM

- Ki [4]: 27.3 µM
SMILES: NS(=O)(=O)c1cccc(N2C(=S)NC3C(O)C(C(O)CO)OC32)c1 [Compound 9b, 1-(3′-Sulfonamidophenyl)-(1″,2″-dideoxy-α-D-galactofurano)[2,1-d]imidazolidine-2-thione]

- S.I. I/IX [2]: 1.0
- S.I. II/IX [2]: 12.4
- S.I. I/XII [3]: 0.9
- S.I. II/XII [3]: 11.1
SMILES: NS(=O)(=O)c1ccc(CCNC(=S)N[C@@H]2O[C@H](CO)[C@@H](O)[C@H](O)[C@H]2O)cc1 [Compound 1c]

- S.I. I/IX [2]: 27.2
- S.I. II/IX [2]: 0.02
- S.I. I/XII [3]: 937
- S.I. II/XII [3]: 0.9
SMILES: NS(=O)(=O)c1ccc(NC(=S)N[C@@H]2O[C@H](CO)[C@@H](O)[C@H](O)[C@H]2O)cc1 [Compound 1a]

SMILES: NS(=O)(=O)c1cccc(NC(=S)NC2C(O)OC(CO)C(O)C2O)c1 (stereo not shown) [Compound 3b]
- Ki [5]: 0.009 µM

- S.I. I/IX [2]: 977.1
- S.I. II/IX [2]: 31.7
- S.I. I/XII [3]: 340
- S.I. II/XII [3]: 11.0
SMILES: NS(=O)(=O)c1ccc(NC(=S)N[C@@H]2O[C@H](CO)[C@H](O)[C@H](O)[C@H]2O)cc1 [Compound 2a]

- Ki [2]: 0.116 µM
- S.I. I/IX [2]: >858
- S.I. II/IX [2]: 148
- melting point: 148 °C
- Ki [3]: 0.164 µM
- S.I. I/XII [3]: >610
- S.I. II/XII [3]: 106
- Ki [12]: 17.3 µM
- Ki [13]: > 100 µM
SMILES: CO[C@H]1O[C@H](CO)[C@@H](O)[C@H](O)[C@H]1NC(=S)NCCCCCCOc1ccc2c(-c3ccccc3)cc(=O)oc2c1 [Compound 21f, N′-(Methyl 2-deoxy-α-D-glucopyranosid-2-yl)-N′-{6′-[7″-(4″-phenyl-2″-oxo-2″H-chromen-7″-yl)oxy]hexyl}thiourea]
- GI50 [6]: 23 ± 3.2 µM
- GI50 [7]: 30 ± 7.4 µM
- GI50 [8]: 9.7 µM
- GI50 [9]: 34 ± 4 µM
- GI50 [10]: 25 ± 8 µM
- GI50 [11]: 36 ± 16 µM
- GI50 ([1]; the five cell lines other than SW1573, read-out: GI50, other five lines): 23 to 36 µM

- Ki [4]: 0.0451 µM
SMILES: NS(=O)(=O)c1cccc(N2C(=S)NC3C(O)C(C(O)CO)OC32)c1 [Compound 8b, 1-(3′-Sulfonamidophenyl)-(1″,2″-dideoxy-α-D-glucofurano)[2,1-d]imidazolidine-2-thione]

- Ki [12]: > 100 µM
- Ki [13]: > 100 µM
SMILES: Cc1cc(=O)oc2cc(OCCCCCCN3C(=S)NC4C(O)C(C(O)CO)OC43)ccc12 [Compound 26, 1-{4′-[7″-(4″-Methyl-2″-oxo-2″H-chromen-7″-yl)oxy]hexyl}-(1‴,2‴-dideoxy-α-D-galactofurano)[2,1-d]imidazolidine-2-thione]

- S.I. I/IX [2]: 48.6
- S.I. II/IX [2]: 104
SMILES: NS(=O)(=O)c1ccc(NC(=S)N[C@H]2C(O)O[C@H](CO)[C@H](O)[C@@H]2O)cc1 (stereo partly shown) [Compound 4a]
- Ki [5]: 0.074 µM

SMILES: O=c1cc(-c2ccccc2)c2ccc(OCCCCN3C(=S)N[C@@H]4[C@@H](O)[C@@H]([C@H](O)CO)O[C@@H]43)cc2o1 [Compound 24e, 1-{4′-[7″-(4″-Phenyl-2″-oxo-2″H-chromen-7″-yl)oxy]butyl}-(1‴,2‴-dideoxy-α-D-glucofurano)[2,1-d]imidazolidine-2-thione]
- GI50 [6]: 23 ± 0.8 µM
- GI50 [7]: 70 ± 23 µM
- GI50 [8]: 5.7 ± 1.8 µM
- GI50 [9]: 64 ± 31 µM
- GI50 [10]: 31 ± 0.2 µM
- GI50 [11]: 47 ± 11 µM

- Ki [4]: 4.57 µM
SMILES: NS(=O)(=O)c1ccc(N2C(=S)NC3C(O)C(C(O)CO)OC32)cc1 [Compound 9a, 1-(4′-Sulfonamidophenyl)-(1″,2″-dideoxy-α-D-galactofurano)[2,1-d]imidazolidine-2-thione]

- Ki [2]: 0.106 µM
- S.I. I/IX [2]: >945
- S.I. II/IX [2]: >945
- melting point: 165 °C
- Ki [3]: 0.228 µM
- S.I. I/XII [3]: >439
- S.I. II/XII [3]: >439
- Ki [12]: > 100 µM
- Ki [13]: > 100 µM
SMILES: CO[C@H]1O[C@H](CO)[C@@H](O)[C@H](O)[C@H]1NC(=S)NCCCCOc1ccc2c(-c3ccccc3)cc(=O)oc2c1 [Compound 21e, N-(Methyl 2-deoxy-α-D-glucopyranosid-2-yl)-N′-{4′-[7″-(4″-phenyl-2″-oxo-2″H-chromen-7″-yl)oxy]butyl}thiourea]

- Ki [12]: > 100 µM
- Ki [13]: > 100 µM
SMILES: Cc1cc(=O)oc2cc(OCCCCCCN3C(=S)N[C@@H]4[C@@H](O)[C@@H]([C@H](O)CO)O[C@@H]43)ccc12 [Compound 24c, 1-{6′-[7″-(4″-Methyl-2″-oxo-2″H-chromen-7″-yl)oxy]hexyl}-(1‴,2‴-dideoxy-α-D-glucofurano)[2,1-d]imidazolidine-2-thione]

- Ki [4]: 0.348 µM
SMILES: NS(=O)(=O)c1ccc(N2C(=S)NC3C(O)C(C(O)CO)OC32)cc1 [Compound 8a, 1-(4′-Sulfonamidophenyl)-(1″,2″-dideoxy-α-D-glucofurano)[2,1-d]imidazolidine-2-thione]

- S.I. I/IX [2]: 35.1
- S.I. II/IX [2]: 126
SMILES: NS(=O)(=O)c1ccc(NC(=S)NC2C(O)OC(CO)C(O)C2O)cc1 (stereo not shown) [Compound 3a]
- Ki [5]: 0.077 µM

SMILES: CO[C@H]1O[C@H](CO)[C@@H](O)[C@H](O)[C@H]1NC(=S)Nc1ccc2c(C)cc(=O)oc2c1 [Compound C00016]
- GI50 [6]: 86 ± 25 µM
- GI50 [7]: > 100 µM
- GI50 [8]: 79 ± 37 µM
- GI50 [9]: 79 ± 36 µM
- GI50 [10]: 83 ± 30 µM
- GI50 [11]: > 100 µM
